Test results as given in patent publication US12097174B2, “Methods and agents that enhance myogenic progenitor cell engraftment” (President and Fellows of Harvard College, priority 2018, dated 2024).
“Also recorded” adds a separate entry of the source.

Experiments:
[1] = system: Zebrafish myogenic progenitor cells (ZeMPCs); assay: Limiting dilution engraftment assay (ELDA): cells treated ex vivo, transplanted into adult zebrafish, imaged at 7 dpt; assay type: in vivo; conditions: for engraftment efficiency compared with DMSO/vehicle-treated cells: 0.1 μM LPA or 0.3 μM NFA; for engraftment efficiency relative to vehicle-treated controls: 5 μM LPA or 10 μM NFA; for engraftment capacity of transplanted myogenic progenitors in recipient adult zebrafish: 4 hour ex vivo chemical exposure, replicate transplantation
Method: Donor cells were derived from embryos that contained a GFP cassette driven by the promoter for mylz2, a muscle-specific structural protein. Recipients were optically clear, immunocompromised adult prkdc−/− zebrafish. To perform a limiting dilution assay, three doses (n=100, 200, and 400 cells) were administered per treatment (n=10 engraftment events per treatment-dose combination). The estimated engrafting cell frequency was calculated using the Extreme Limiting Dilution Analysis (ELDA, Hu et. al. 2009), which provides the most likely estimate (MLE) of engrafting cell frequency.
Given that this group of 230 lipids is too many to be examined in mice, transplantation efficiency was instead examined via limit-dilution assays in 15 recipient zebrafish per compound after a brief (4 hour) ex vivo chemical exposure. Positive hits from this primary screening were rescreened in replicate transplantation experiments incorporating dose response testing.
Lipids are frequently found to enhance cell migration and homeostasis in blood and muscle tissue (Cencetti et al., 2014; Lahvic et al., 2018; Li et al., 2015; Oh et al., 2016), and so it was elected to screen mainly bioactive lipids in efforts to identify compounds that enhance ZeMPCs engraftment efficiency in vivo. Myogenic progenitor cells were treated for 4 hours with one of the 188 unique lipid compounds contained in the ICCB Known Bioactives Library. Compound-treated cells were then harvested and transplanted intramuscularly into both flanks of 5 different casper recipient fish, with transplants performed at each of 3 transplanted cell doses (25, 75 or 150 cells). In these studies, recipient fish received split-dose irradiation of 15 Gy at 2 days and 1 day prior to transplantation to suppress any immune responses to the transplanted cells. Engraftment efficiency was measured by imaging casper recipients at 7 dpt (FIG. 18A). […] For this secondary screening approach, cells were transplanted into prkdc^D3612ls casper fish, which are deficient in mature T and B cells, and assayed engraftment efficiency in the recipient fish 7 days post-transplantation. Two compounds were identified, lysophosphatidic acid (LPA) and niflumic acid (NFA), which increased ZeMPC engraftment efficiency in both of these assay systems (FIG. 12B).
Lipids from the ICCB Known Bioactives Library (enzolifesciences.com/BML-2840/iccb-known-bioactives-library) were diluted at a 1:100 ratio in transplantation media (zESC medium without bFGF and FBS) and added to prewashed in vitro expanded muscle cells. NFA (Cayman and Santa Cruz Biotechnology) and LPA (Cayman and Santa Cruz Biotechnology) were used for the secondary confirmation screening experiments. […] 4- to 8-month-old casper recipients received split-dose irradiation of 15 Gy each, either 2 days or 1 day before transplantation. For LDA screening, cells were transplanted into each side of 5 pre-irradiated casper recipient fish or 5 non-irradiated prkdc-mutant recipient zebrafish. At 7 dpt, the recipients were anaesthetized using a previously described method (Dang et al., 2016) and imaged using a fluorescent stereo microscope (Leica M165 FC). Successful engraftment was defined as the presence of GFP+ fibers. Variation in different experiments is caused by inherent variability in the in vitro ZeMPC derivation procedure, which results in differences in engrafting cell frequency across different derivation attempts. To mitigate the impact of such experimental variation on screening results, only LDA results for cells derived from the same cultures were compared. Comparison to a vehicle-treated experimental control was included in every transplantation experiment. Next, the chemical treated cell potency and vehicle-treated cell potency was measured using the Extreme Limiting Dilution Analysis (ELDA) software (Hu and Smyth, 2009). The ratio of the treated cell potency and vehicle-treated cell potency determine the engraftment efficiency fold increase value.

ZeMPCs = assay: Calcium imaging in Fura-2, AM treated ZeMPCs (single-cell imaging); assay type: cell-based, zebrafish; conditions: 10 μM NFA, 5 μM LPA, 10 μM ionomycin; 10-20 seconds after loading
Method: Fura-2, AM treated ZeMPCs were exposed to 10 μM NFA, 5 μM LPA, 10 μM lonomycin (as a positive control) and DMSO (as vehicle control) to visualize their effect on intracellular calcium ion concentration using single-cell imaging. […] Scale bar 50 μm.
The ZeMPCs and C2C12 cells were incubated with Fura-2, AM (Thermo Fisher Sci F1225), a cell permeant fluorescent calcium ion indicator, for 45 minutes at 28.5° C. and 37° C., respectively, followed by imaging with Celldiscoverer7 Microscope (Zeiss). 20 seconds after imaging initiation the treatment was added to the cells and continued for a total of 2-3 minutes.

mouse satellite cells = assay: RNA sequencing of treated mouse satellite cells; assay type: cell-based
Text: To gain insight into the mechanisms through which LPA and NFA treatment might enhance donor cell engraftment in vertebrate muscle, RNA sequencing analysis were next performed in treated ZeMPCs and in mouse satellite cells. Comparison of differential gene expression in NFA-treated or LPA-treated cells to vehicle-treated cells indicated upregulation of calcium-dependent genes in response to these compounds in both ZeMPCs (FIG. 21) and mouse satellite cells (FIGS. 15A and 15B).
Isolated mouse muscle satellite cells and ZeMPCs were used to prepare RNA after in vitro chemical treatment. Total RNA was isolated by the micro RNeasy kit (QIAGEN). cDNA was prepared using SMART Seq v4 Ultra Low RNA-Seq kit for 48 reactions (Takara) and a Nextera kit was used for library construction. Sequencing data FASTQ files for samples were processed in tophat-cufflinks workflow in a Linux server operating system to output gene-level abundance estimates and statistical inference as gene-level raw counts. Those raw counts for samples were input into the cuffdiff for differential gene expression analysis. The assigned GEO accession number for the RNA sequencing data is GSE143801.

Compound	engraftment efficiency compared with DMSO/vehicle-treated cells [1]	engraftment efficiency compared with DMSO treated cells ([1]; 0.3 uM LPA)	engraftment efficiency relative to vehicle-treated controls [1] [times]	engraftment efficiency compared with DMSO treated cells ([1]; 15 uM NFA or 4 uM LPA)	engraftment capacity of transplanted myogenic progenitors in recipient adult zebrafish [1]	engraftment efficiency relative to DMSO-treated cells ([1]; ZeMPCs treated for 1 hour)	engraftment efficiency relative to DMSO-treated cells ([1]; ZeMPCs treated for 2 hours) [times]	engraftment efficiency relative to DMSO-treated cells ([1]; ZeMPCs treated for 4 hours) [times]	intracellular calcium ion concentration (ZeMPCs)	expression of calcium-dependent genes vs vehicle-treated cells (mouse satellite cells)	expression of myoblast fusion related genes, including myomaker (Tmem8c) and Ccl8 (mouse satellite cells)
lysophosphatidic acid [LPA]	did not change the engraftment efficiency; also recorded: did not alter the engraftment efficiency; also recorded: did not result in any change	did not change the engraftment efficiency	2.34	increased engraftment efficiency	increasing the engraftment capacity	1.11 times	1.72	2.3	increase	upregulation	upregulated
O=C(O)c1cccnc1Nc1cccc(C(F)(F)F)c1 [NFA, niflumic acid]	did not change the engraftment efficiency; also recorded: did not alter the engraftment efficiency; also recorded: no difference	–	2.37	increased engraftment efficiency	increasing the engraftment capacity	did not alter	2.85	2.64	increase	upregulation	–
